In patent US20040248806A1, “Compounds comprising an analgesic molecule linked to a vector that can vectorise said molecule through the hematoencephalic barrier and pharmaceutical compositions containing same” (priority 2001, published 2004):
Read-outs that look alike come from different tables or passages of the source. Non-standard residues stand in square brackets, D forms with d. Residues, ends and D or L forms follow the SMILES beside them. *: point of attachment. X1 = CN1CC[C@]23c4c5ccc(O)c4O[C@H]2[C@@H](O[C@@H]2O[C@H](C(=O)NCCS*)[C@@H](O)[C@H](O)[C@H]2O)C=C[C@H]3[C@H]1C5; Mpa = O=C(O)CCS

Columns and labels:
[1] = Tail flick test; type: in vivo, mouse; details: mice; for ED50: dose giving analgesic effect in 50% of the mice
Procedure: II.2. Assay Used: Tail Flick Test
a) Experimental Conditions
The mouse tail is placed in front of an infrared source. The light is focused on the ventral surface of the tail so as to produce a surface temperature of 55° C. As soon as the mouse moves the tail, the reaction time is then measured. The compounds studied are administered subcutaneously.
Three measurements are taken before administration of the product so as to have a baseline time. The percentage of mice in which analgesia has occurred is then represented by the number of mice having a reaction time which is at least double the baseline time divided by the total number of mice. The ED50 dose represents the concentration which gives 50% of mice in which analgesia has occurred.
[…]. We determined the ED50, which represents the dose which gives an analgesic effect in 50% of the mice in the “tail flick” model, for each product. […].

[2] = biological target: μ1 receptor; assay: Receptor affinity, [3H]DADLE binding in calf thalamus homogenate; details: [3H]DADLE 0.7 nM with 10 nM DPDPE
Procedure: (§1) Tissue homogenates are prepared from calf brains (thalamus for μ1 and μ2 and frontal cortex for delta). [^3H][D-Ala^2,D-Leu^5]enkephalin (DADLE) (0.7 nM) is incubated with 3 ml of tissue homogenate (15 mg of tissue per ml) in the presence of 10 nM of [D-Pen^2,D-Pen^5]enkephalin (DPDPE) and of increasing concentrations of free or vectorized M6G. Under these conditions, specific binding to μ1 binding sites is observed. For the μ2 receptor, [D-Ala^2, MePhe^4,Gly(ol)^5]enkephalin (DAMGO) (1 nM) is incubated with 3 ml of tissue homogenate in the presence of 5 nM [D-Ser2,Leu^5]enkephalin-Thr^6 (DSLET) and of increasing concentrations of free or vectorized M6G. For the delta receptor, the tissue is incubated with [^3H] [D-Pen^2,D-Pen^5]enkephalin in the presence of free or vectorized M6G. The nonspecific binding is determined by adding to the labeled ligands 1 μM of levallorphan.

[3] = biological target: T1, μ2 receptor (Bos taurus, UniProt P79350); assay: Receptor affinity, DAMGO binding in calf thalamus homogenate; details: DAMGO 1 nM with 5 nM DSLET
T1 construct: Tissue homogenates are prepared from calf brains; from tissue; host or cells: calf brain thalamus homogenate
T1 sequence (P79350 whole entry): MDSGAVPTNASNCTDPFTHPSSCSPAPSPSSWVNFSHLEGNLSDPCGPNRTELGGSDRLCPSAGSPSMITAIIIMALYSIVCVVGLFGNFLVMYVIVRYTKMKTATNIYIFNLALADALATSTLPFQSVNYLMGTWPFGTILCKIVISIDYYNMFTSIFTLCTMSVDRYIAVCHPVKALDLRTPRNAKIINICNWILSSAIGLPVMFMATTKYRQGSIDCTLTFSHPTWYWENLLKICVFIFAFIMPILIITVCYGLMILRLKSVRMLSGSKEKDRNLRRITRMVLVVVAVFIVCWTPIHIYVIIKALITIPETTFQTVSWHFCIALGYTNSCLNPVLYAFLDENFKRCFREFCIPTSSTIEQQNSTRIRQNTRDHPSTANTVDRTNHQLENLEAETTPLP
Procedure: as §1

[4] = biological target: T2, delta receptor (Bos taurus, UniProt F1N083); assay: Receptor affinity, [3H]DPDPE binding in calf frontal cortex homogenate
T2 construct: Tissue homogenates are prepared from calf brains; from tissue; host or cells: calf brain frontal cortex homogenate
T2 sequence (F1N083 1-372): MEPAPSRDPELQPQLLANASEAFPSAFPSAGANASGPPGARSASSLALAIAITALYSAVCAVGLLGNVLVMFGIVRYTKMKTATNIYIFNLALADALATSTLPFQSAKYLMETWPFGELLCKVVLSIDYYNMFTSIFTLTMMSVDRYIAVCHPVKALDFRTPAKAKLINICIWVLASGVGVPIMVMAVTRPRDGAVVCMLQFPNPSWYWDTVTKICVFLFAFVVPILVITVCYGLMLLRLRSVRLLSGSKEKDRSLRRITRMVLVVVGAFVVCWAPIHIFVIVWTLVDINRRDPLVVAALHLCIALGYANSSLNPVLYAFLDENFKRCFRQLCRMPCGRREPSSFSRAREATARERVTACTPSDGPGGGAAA
Procedure: as §1

[5] = Respiratory depression (blood O2 saturation); type: in vivo, rat; details: rats, subcutaneous; for effect on oxygen saturation (FIG. 5, B and C) / oxygen level (SO2): 5×ED50 and 10×ED50 doses; for oxygen level (SO2): between 30 and 90 min; for effect on O2 saturation (FIG. 5, A): ED50 dose
Procedure: The respiratory depression was calculated in rats. The product is injected into the animals subcutaneously and, after a certain amount of time, an aliquot of blood is taken from the femoral artery via a catheter implanted beforehand. During the study, the animals are placed in a calm place. After the blood sample has been taken, the oxygen saturation (SO2) and the CO2 pressure (PCO2) are measured. The SO2 values are measured in % O2.

[6] = systemic injection; cited from earlier work
[7] = In situ brain perfusion (penetration through the BBB); type: in vivo; details: mouse, perfusion of 60 seconds in buffer
Excerpt: a) Experimental Conditions: In Situ Brain Perfusion
Mice (20-25 g, Iffa-Credo; l'Arbresle, France) are anesthetized. After exposure of the common carotid, the right external carotid artery is ligated at the level of the bifurcation with the internal carotid, and the common carotid is ligated between the heart and the site of the implantation of the catheter (polyethylene catheter, ID: 0.76). Said catheter, pre-filled with a heparin solution (100 units/ml) is inserted into the common carotid. The mice are perfused with a perfusion buffer (128 mM NaCl, 24 mM NaHCO3, 4.2 mM KCl, 2.4 mM NaH2PO4, 1.5 mM CaCl2, 0.9 mM MgSO4 and 9 mM D-glucose). This buffer is filtered and then a mixture containing 95% O2/5% CO2 is bubbled through in order to maintain the pH in the region of 7.4 and to supply the brain with oxygen during the perfusion.
The mice are perfused with the buffer containing the free M6G (compound 1: specific activity 84 mCi/mg) or the vectorized M6G (compound 2; specific activity 14.3 mCi/mg). Just before the start of the perfusion, the heart is stopped by sectioning the ventricles, in order to avoid reflux of the perfusate during the perfusion. The right hemisphere is then perfused at a rate of 10 ml/min for 60 seconds, after which time the mouse is decapitated. The amount of radioactivity in the right hemisphere is then measured and the brain penetration index (Kin) is calculated. […]

SMILES | Duration of the effect ([1]; intravenous) [min] | ED50 ([1]; intravenous) [µmol/kg] | Duration of the effect ([1]; subcutaneous) [min] | ED50 ([1]; subcutaneous) [µmol/kg] | Ki [2] [nM] | Ki [3] [nM] | Ki [4] [nM] | effect on oxygen saturation (FIG. 5, B and C) [5] | oxygen level (SO2) [5] [%] | mortality (FIG. 5, C) ([5]; 10×ED50 dose, 60 min time point) | effect on O2 saturation (FIG. 5, A) [5] | analgesic activity compared with morphine [6] | increase in passage into the brain (Kin) versus free M6G (FIG. 4) [7] | ED50 ([1]; Mus musculus, sc, subcutaneous, read-out: ED50) [µmol/kg] | ED50 ([1]; Mus musculus, intravenous, read-out: ED50) [µmol/kg]
CN1CC[C@]23c4c5ccc(O)c4O[C@H]2[C@@H](O[C@@H]2O[C@H](C(=O)O)[C@@H](O)[C@H](O)[C@H]2O)C=C[C@H]3[C@H]1C5 [Compound 1, morphine-6-glucuronide] | 90 | >5.7 | 150 | 6.6 | 2.67 | 5.82 | 23 | very significant decrease in the oxygen saturation | ~50 | caused the death of some animals | no effect | roughly the same analgesic activity | – | – | –
CC(C)C[C@H](NC(=O)[C@H](CCCNC(=N)N)NC(=O)[C@H](CCCNC(=N)N)NC(=O)CCSSCCNC(=O)[C@H]1O[C@@H](O[C@H]2C=C[C@H]3[C@H]4Cc5ccc(O)c6c5[C@@]3(CCN4C)[C@H]2O6)[C@H](O)[C@@H](O)[C@@H]1O)C(=O)N[C@@H](CO)C(=O)N[C@@H](Cc1ccc(O)cc1)C(=O)N[C@@H](CO)C(=O)N[C@@H](CCCNC(=N)N)C(=O)N[C@@H](CCCNC(=N)N)C(=O)N[C@@H](CCCNC(=N)N)C(=O)N[C@@H](Cc1ccccc1)C(=O)O [Compound 2] ([Mpa](X1)RRLSYSRRRF-OH; C-terminus assumed) | – | – | – | – | – | 0.6 | 19 | no notable decrease | – | – | no effect | – | approximately 100 fold | – | –
CN1CC[C@]23c4c5ccc(O)c4O[C@H]2[C@@H](O)C=C[C@H]3[C@H]1C5 [Compound 3, Morphine] | 60 | – | 90 | – | – | – | – | very significant decrease in the oxygen saturation | ~50 | – | small decrease in O2 saturation | – | – | 11.6 | 15.4
